Data set [1] in a line: Storage properties (standard tests, not described). Format: physicochemical. Particulars: salt forms.
Data set [2] can be described thus: Bioavailability (tests not described). Type of data set: in vivo. Particulars: salt forms.
The subject of the next data set is HCV replicon. The data set is described as follows: Cell-based HCV replicon assay (Huh-luc/neo-ET, luciferase). The arrangement: species or system Hepatitis C virus. The settings on record: for pEC50: Hepatitis C virus, Huh-7 cell line, luciferase readout. An excerpt:
(§1) The CFI assay is based on quantitative immunodetection of the viral envelope protein, E, as a readout for viral load in target cells. In the CFI assay, the compounds of the invention show activity against dengue virus (e.g. dengue virus serotype 2). […] The HCV replicon contains an inserted firefly luciferase construct in its sequence. The genome of the HCV replicon is maintained as RNA species in a Huh-7 cell line (Krieger et al. Journal of Virology 2001; 75(10):4614-24). Measurement of luciferase activity is used as a surrogate marker for viremia in target cells.
HVC replicon-containing cells, Huh-luc/neo-ET (e.g. as described in Krieger et al., Journal of Virology, 2001; 75(10):4614-24), are maintained in DMEM medium containing 2 mM […], 0.1 mM non-essential amino acid solution, 10% heat-inactivated fetal bovine serum and […] Geneticin®, G418 sulfate solution. The cells are kept between 20 to 80% confluency and are trypsinized with trypsin (0.05%)/EDTA solution. After trypsinization, cells are resuspended in supplemented DMEM phenol red-free medium (DMEM phenol red free supplemented with 2 mM L-glutamine, 0.1 mM non-essential amino acid solution, 10% of heat-inactivated fetal bovine serum and 1 mM sodium pyruvate) and pelleted by centrifugation at 420 g for 5 min. Cell density is calculated and diluted to 1×10^5 cells/mL with phenol red-free medium.
Two sets of plates are prepared, a white opaque 96-well plate for the luciferase reading and a 96-well clear plate for cytotoxicity measurement. Each well is seeded with 10,000 cells/well and incubated overnight at 37° C., 5% CO2. After incubation, the medium is aspirated and phenol red free medium supplemented with various concentrations of compounds is added and the plates further incubated for at 37° C., 5% CO2 for another 48 hours. A positive control may be used, such as, for example, (2R,3R,4R,5R)-2-(4-amino-pyrrolo[2,3-d]pyrimidin-7-yl)-3-ethynyl-5-hydroxymethyl-tetrahydrofuran-3,4-diol.
For determination of luciferase activity, the plates are removed from the incubator to allow them to equilibrate to room temperature for 30 minutes and luciferase activity is measured after the addition of 100 μL of the Britelite® (PerKin Elmer) prepared according to manufacturer's instructions.
(In general: Replicon systems follow genome replication, usually without infectious particles.)

In the next data set the test system is TSV01 dengue virus 2. Briefly: Mouse model of dengue virus infection (viremia by plaque assay). Format: in vivo, AG129 mice. On the procedure:
The compounds of the invention also show activity in vivo in a mouse model of dengue infection (Schul et al. Journal of Infectious Diseases 2007; 195:665-74). Briefly, AG129 mice (B&K Universal Ltd, Hull, UK) are housed in individually ventilated cages (TechniPlast, Italy) and used between 6 and 10 weeks of age. Mice are injected intraperitoneally with 0.6 ml TSV01 dengue virus 2 suspension. Blood samples are taken by retro orbital puncture under isoflurane anaesthesia. Blood samples are collected in tubes containing sodium citrate to a final concentration of 0.4%, and immediately centrifuged for 3 minutes at 6000 g to obtain plasma. 20 μL of plasma is diluted in 780 μL RPMI1640 medium and snap frozen in liquid nitrogen for plaque assay analysis. Remaining plasma is used for cytokine and NS1 protein level determination. Mice develop dengue viremia rising over several days, peaking on day 3 post-infection.
For testing of antiviral activity, a compound of the invention is dissolved in vehicle fluid, e.g. 10% ethanol, 30% PEG 300 and 60% D5W (5% dextrose in water); or 6N HCl (1.5 eq): 1N
NaOH (pH adjusted to 3.5): 100 mM citrate buffer pH 3.5 (0.9% v/v: 2.5% v/v: 96.6% v/v). Thirty six 6-10 week old AG129 mice are divided into six groups of six mice each. All mice are infected with dengue virus as described above (day 0). Group 1 is dosed by oral gavage of 200 μL/mouse with 13 mg/kg of a compound of the invention twice a day (once early in the morning and once late in the afternoon) for three consecutive days starting on day 0 (first dose just before dengue infection). […] Thus, Groups 1 and 2 are dosed with a compound of the invention at 13 mg/kg and 32 mg/kg respectively, and Groups 3 and 4 are dosed with another compound of the invention at 13 mg/kg and 32 mg/kg respectively. A positive control may be used, such as, e.g., (2R,3R,4R,5R)-2-(4-amino-pyrrolo[2,3-d]pyrimidin-7-yl)-3-ethynyl-5-hydroxymethyl-tetrahydrofuran-3,4-diol, dosed by oral gavage of 200 μL/mouse the same way as the previous groups. A further group is treated with only vehicle fluid.
On day 3 post-infection approximately 100 μL blood samples, anti-coagulated with sodium citrate, are taken from the mice by retro-orbital puncture under isoflurane anaesthesia. Plasma is obtained from each blood sample by centrifugation and snap frozen in liquid nitrogen for plaque assay analysis. The collected plasma samples are analyzed by plaque assay as described in Schul et al. Journal of Infectious Diseases 2007; 195:665-74. Cytokines are also analysed as described in Schul et al. Journal of Infectious Diseases 2007; 195:665-74. NS1 protein levels are analysed using a Platelia® kit (BioRad Laboratories). An anti-viral effect is indicated by a reduction in cytokine levels and/or NS1 protein levels.

Data set [3] concerns dengue virus serotype 2 strain New Guinea C. Briefly: Cell-based flavivirus immunodetection (CFI) assay. Particulars: for pEC50: Dengue virus, A549, read-out: EC50 in the CFI assay for dengue virus.
Excerpt: as §1
50% effective concentration (EC50), is the concentration of the test compound that decreases the signal generated by the virus by 50%. It is calculated using nonlinear regression analysis using the variable slope sigmoidal dose-response curve, with commercial software such as Prism or ActivityBase.
A549 cells (e.g. available from ATCC #CCL-185) are trypsinized, counted and diluted to 2×10^5 cells/ml in Hams F-12 media supplemented with 2% fetal bovine serum and 1% penicillin/streptomycin. 2×10^4 cells are dispensed in clear 96-well tissue culture plate per well and placed at 37° C., 5% CO2 overnight. On the next day, the cells are infected with virus (dengue serotype 2, NGC strain, e.g. available from ATCC #VR-1584) at multiplicity of infection (MOI) of 0.3 in the presence of varied concentrations of test compounds for 1 hour at 37° C. and 5% CO2 in the same media. The medium containing virus and the compounds is removed, replaced with fresh medium containing only the test compounds and incubated at 37° C., 5% CO2 for another 48 hours. The cells are washed once with PBS and fixed with cold methanol for 10 min. After washing twice with PBS, the fixed cells are blocked with PBS containing 1% FBS and 0.05% Tween-20 for 1 hour at room temperature. The primary antibody solution (4G2) is then added at a concentration of 1:20 to 1:100 in PBS containing 1% FBS and 0.05% Tween-20 for 3 hours. The cells are then washed three times with PBS followed by one hour incubation with horseradish peroxidase (HRP)-conjugated anti-mouse IgG (Sigma, 1:2000 dilution). After washing three times with PBS, 50 μL of 3,3′,5,5′-tetramethylbenzidine (TMB) substrate solution (Sigma) is added to each well for two minutes. The reaction is stopped by addition 0.5M sulfuric acid. The plates are read at 450 nm absorbance for viral load quantification. After measurement, the cells are washed three times with PBS, followed by incubation with propidium iodide for 5 min. The plate is read in a Tecan Safire plate reader (excitation 537 nm, emission 617 nm) for cell number quantification. Dose response curves are plotted from the mean absorbance versus the log of the concentration of test compounds. The EC50 is calculated by nonlinear regression analysis. A positive control may be used, such as, for example, (2R,3R,4R,5R)-2-(4-amino-pyrrolo[2,3-d]pyrimidin-7-yl)-3-ethynyl-5-hydroxymethyl-tetrahydrofuran-3,4-diol.

Where [4] appears, read: 32 mg/kg bid, oral gavage, 3 days, AG129 mice.

pEC50: −log10 of the molar value.

Take `C#C[C@@]1(O)[C@H](O)[C@@H](CO)O[C@H]1n1ccc2c(N)ncnc21.C#C[C@@]1(O)[C@H](O)[C@@H](CO)O[C@H]1n1ccc2c(N)ncnc21.O=S(=O)(O)c1cccc2c(S(=O)(=O)O)cccc12` [(2R,3R,4R,5R)-2-(4-amino-pyrrolo[2,3-d]pyrimidin-7-yl)-3-ethynyl-5-hydroxymethyl-tetrahydrofuran-3,4-diol napadisylate 2:1 salt]: in data set [1], the “storage properties (in words)” value is listed as “good storage properties”. Further, the “bioavailability (in words)” value in data set [2] was “good bioavailability”.

The pEC50 is −log10 of the EC50, conventionally taken in molar units. For the compound `C#C[C@@]1(O)[C@H](OC(=O)[C@@H](N)C(C)C)[C@@H](CO)O[C@H]1n1ccc2c(N)ncnc21` [Compound 3, (S)-2-Amino-3-methyl-butyric acid (2R,3R,4R,5R)-5-(4-amino-pyrrolo[2,3-d]pyrimidin-7-yl)-4-ethynyl-4-hydroxy-2-hydroxymethyl-tetrahydro-furan-3-yl ester], in the data set with HCV replicon, the “activity in the HCV replicon assay (in words)” value is “exhibit activity” and the pEC50 is ~7.18. In addition, the reduction in viremia result in the data set on TSV01 dengue virus 2 (setting [4]) is “about 45 fold”. For the same compound, the “activity in vivo in a mouse model of dengue virus infection (in words)” value (shortened to “activity in vivo in a mouse model”) in the data set with TSV01 dengue virus 2 was “exhibit activity”. Moreover, in data set [3], the “activity in the CFI assay (in words)” value is “exhibit activity” and the pEC50 is ~6.07.

As to `C#C[C@@]1(O)[C@H](OC(=O)C(C)C)[C@@H](CO)O[C@H]1n1ccc2c(N)ncnc21` [Compound 4, Isobutyric acid (2R,3R,4R,5R)-5-(4-amino-pyrrolo[2,3-d]pyrimidin-7-yl)-4-ethynyl-4-hydroxy-2-hydroxymethyl-tetrahydro-furan-3-yl ester], the “activity in the HCV replicon assay (in words)” value in the data set with HCV replicon is listed as “exhibit activity”. For the same compound, the reduction in viremia result in the data set with TSV01 dengue virus 2 (setting [4]) is on record as “about 113 fold”. In the data set with TSV01 dengue virus 2, the “activity in vivo in a mouse model” value is reported as “exhibit activity”. In data set [3], the “activity in the CFI assay (in words)” value is on record as “exhibit activity” and the pEC50 is ~6.50.

With `C#C[C@@]1(O)[C@H](OC(=O)C(C)C)[C@@H](COC(=O)C(C)C)O[C@H]1n1cc(C(N)=O)c2c(N)ncnc21` [Compound 10, Isobutyric acid (2R,3R,4R,5R)-5-(4-amino-5-carbamoyl-pyrrolo[2,3-d]pyrimidin-7-yl)-4-ethynyl-4-hydroxy-2-isobutyryloxymethyl-tetrahydro-furan-3-yl ester], in the data set with HCV replicon, the “activity in the HCV replicon assay (in words)” value is recorded as “exhibit activity” and the pEC50 is ~7.46. Further, the reduction in viremia entry in the data set on TSV01 dengue virus 2 (25 mg/kg, mouse model of dengue virus infection) is “about 30 fold”. Besides, the “activity in vivo in a mouse model” value in the data set on TSV01 dengue virus 2 was “exhibit activity”. In data set [3], the “activity in the CFI assay (in words)” value is given as “exhibit activity” and the pEC50 was ~6.36.

For the compound “(2R,3R,4R,5R)-2-(4-amino-pyrrolo[2,3-d]pyrimidin-7-yl)-3-ethynyl-5-hydroxymethyl-tetrahydrofuran-3,4-diol salicylate salt”, the “storage properties (in words)” value in data set [1] was “good storage properties”. In addition, the “bioavailability (in words)” value in data set [2] was “good bioavailability”.

These data come from patent publication US20100144655A1, “ORGANIC COMPOUNDS” (NOVARTIS AG, priority 2008, published 2010).
